# In patent publication US6294537A, “Compounds which are specific antagonists of the human NK3 receptor and their use as medicinal products and diagnostic tools” (Sanofi-Synthelabo, priority 1999, dated 2001):
# Residues, ends and D or L forms follow the SMILES beside them. No end group written: not given here.
# Columns and labels:
# [1] = target: T1, NK2 receptor of rat duodenum (Rattus norvegicus, UniProt P16610); assay: Binding of [125I]His-NKA to NK2 receptors of rat duodenum; settings: read-out: inhibition constant Ki, rat duodenum NK2 receptor
# T1 construct: NK2 receptors of rat duodenum; from tissue; host or cells: rat duodenum
# T1 sequence (P16610 1-390): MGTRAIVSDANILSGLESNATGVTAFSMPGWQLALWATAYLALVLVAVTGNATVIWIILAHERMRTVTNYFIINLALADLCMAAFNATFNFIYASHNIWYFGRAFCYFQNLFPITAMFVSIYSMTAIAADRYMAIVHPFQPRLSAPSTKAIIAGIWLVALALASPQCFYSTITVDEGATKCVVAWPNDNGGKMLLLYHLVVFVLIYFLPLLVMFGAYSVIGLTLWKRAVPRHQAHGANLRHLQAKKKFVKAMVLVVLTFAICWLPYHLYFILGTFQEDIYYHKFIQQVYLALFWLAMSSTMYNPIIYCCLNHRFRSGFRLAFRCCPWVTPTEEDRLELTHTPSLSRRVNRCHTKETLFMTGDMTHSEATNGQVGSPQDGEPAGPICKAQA
# Procedure: (§1) The affinity of the compounds of formula (I') for the tachykinin receptors was evaluated in vitro by several biochemical assays using radioligands:
# 2) The binding of [^125 I]His-NKA to the NK2 receptors of rat duodenum or of guinea pig ileum.
# (§2) The assays were carried out according to X. Emonds-Alt et al. (Eur. J. Pharmacol., 1993, 250, 403-413).
# [2] = target: T2, NK1 receptors of rat cortex (Rattus norvegicus, UniProt P14600); assay: Binding of [125I]BH-SP to NK1 receptors of rat cortex; settings: read-out: inhibition constant Ki, rat cortex NK1 receptor
# T2 construct: NK1 receptors of rat cortex; from tissue; host or cells: rat cortex
# T2 sequence (P14600 whole entry): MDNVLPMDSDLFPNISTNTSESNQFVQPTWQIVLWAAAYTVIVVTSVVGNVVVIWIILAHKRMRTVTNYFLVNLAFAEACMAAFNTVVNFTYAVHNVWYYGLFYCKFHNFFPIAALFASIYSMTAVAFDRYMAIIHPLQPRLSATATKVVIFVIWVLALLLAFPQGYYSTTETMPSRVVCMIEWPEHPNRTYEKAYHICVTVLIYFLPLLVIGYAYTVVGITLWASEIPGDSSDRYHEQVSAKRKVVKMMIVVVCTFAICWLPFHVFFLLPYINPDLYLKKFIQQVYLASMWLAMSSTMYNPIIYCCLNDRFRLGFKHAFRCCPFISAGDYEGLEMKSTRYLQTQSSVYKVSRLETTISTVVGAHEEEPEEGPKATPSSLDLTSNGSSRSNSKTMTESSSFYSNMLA
# Procedure: as §1
# 1) The binding of [^125 I]BH-SP (substance P labeled with iodine 125 with the aid of the Bolton-Hunter reagent) to the NK1 receptors of rat cortex, of guinea pig ileum and of human lymphoblastic cells.
# as §2
# human NK3 receptor = target: T3, human NK3 receptor (Homo sapiens, UniProt P29371); assay: Binding of [125I]His[MePhe7]NKB to cloned human NK3 receptors expressed by CHO cells; settings: for Ki: cloned human NK3 receptors expressed by CHO cells, read-out: inhibition constant Ki, human NK3 receptor; for selectivity / specificity for the human NK3 receptor: from Ki at human NK3 versus rat NK2/NK1 receptors
# T3 construct: expressed in transfected cells; host or cells: CHO cells
# T3 sequence (P29371 1-465): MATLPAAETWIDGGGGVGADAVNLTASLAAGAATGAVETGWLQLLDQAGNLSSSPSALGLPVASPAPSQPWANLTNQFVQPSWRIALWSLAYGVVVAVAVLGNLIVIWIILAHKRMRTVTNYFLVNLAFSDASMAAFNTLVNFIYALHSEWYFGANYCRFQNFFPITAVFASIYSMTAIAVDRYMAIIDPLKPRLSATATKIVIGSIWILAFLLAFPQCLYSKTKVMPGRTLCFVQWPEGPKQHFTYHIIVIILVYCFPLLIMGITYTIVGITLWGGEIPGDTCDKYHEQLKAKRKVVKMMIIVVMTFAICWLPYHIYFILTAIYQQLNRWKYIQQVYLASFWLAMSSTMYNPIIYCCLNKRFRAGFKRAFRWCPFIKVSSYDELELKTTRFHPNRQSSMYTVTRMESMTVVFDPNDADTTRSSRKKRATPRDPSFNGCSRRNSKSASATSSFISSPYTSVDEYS
# Procedure: as §1
# (§3) 3) The binding of [^125 I]His[MePhe^7 ]NKB to the NK3 receptors of rat cerebral cortex, of guinea pig cerebral cortex and of gerbil cerebral cortex as well as to the cloned human NK3 receptors expressed by CHO cells (Buell et al., FEBS Letters, 1992, 299, 90-95).
# as §2
# rat NK3 receptor [3] = settings: Patent Application EP 512901; read-out: Ki, antagonizes the binding of eledoisin; cited from earlier work
# [4] = target: T4, NK3 receptors of rat cerebral cortex (Rattus norvegicus, UniProt P16177); assay: Binding of [125I]His[MePhe7]NKB to NK3 receptors of rat cerebral cortex; settings: read-out: inhibition constant Ki, rat NK3 receptor
# T4 construct: NK3 receptors of rat cerebral cortex; from tissue; host or cells: rat cerebral cortex
# T4 sequence (P16177 1-452): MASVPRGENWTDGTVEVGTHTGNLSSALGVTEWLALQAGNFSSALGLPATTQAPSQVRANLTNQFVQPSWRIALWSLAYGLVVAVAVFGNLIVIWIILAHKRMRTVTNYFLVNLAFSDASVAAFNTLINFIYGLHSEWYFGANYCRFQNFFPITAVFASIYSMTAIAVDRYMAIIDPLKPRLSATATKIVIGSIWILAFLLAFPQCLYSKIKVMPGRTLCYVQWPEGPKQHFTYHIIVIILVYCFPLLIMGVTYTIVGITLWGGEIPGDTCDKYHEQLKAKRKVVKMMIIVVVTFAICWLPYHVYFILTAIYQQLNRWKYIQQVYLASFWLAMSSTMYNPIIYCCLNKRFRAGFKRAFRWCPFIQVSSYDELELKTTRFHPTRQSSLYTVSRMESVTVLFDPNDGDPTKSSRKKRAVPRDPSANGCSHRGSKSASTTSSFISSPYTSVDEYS
# Procedure: as §1, §3, §2
# NK3 receptor [5] = assay: Hypertension induced in guinea pigs by intravenous or intracerebroventricular senktide; assay type: in vivo; settings: guinea pig; intravenous or intracerebroventricular injection
# Procedure: (§4) The compounds according to the present invention were also evaluated in vivo on two animal models.
# NK3 receptor [6] = assay: Rotating behavior induced in gerbils by intrastriatal senktide; assay type: in vivo; settings: gerbil; unilateral application in the striatum
# Procedure: as §4
# rat NK3 receptor [7] = settings: literature, J. Autonomic Pharmacol. 1993; cited from earlier work
Compound,Ki [1],Ki (human NK3 receptor),selectivity / specificity for the human NK3 receptor (human NK3 receptor),other results
"CN(CC(CCCN1CCC(O)(c2ccccc2)CC1)c1ccc(Cl)c(Cl)c1)C(=O)c1ccccc1.Cl (stereo not drawn) [Example 1, N-Methyl-N-[2-(3,4-dichlorophenyl)-5-(4-hydroxy-4-phenylpiperid-1-yl)pentyl]benzamide hydrochloride]",500 nM,5 nM,high specificity,Ki [2]: 500 nM
"Cl.O=C1CCC(CCN2CCC(O)(c3ccccc3)CC2)(c2ccc(Cl)c(Cl)c2)CN1Cc1ccccc1 (stereo not drawn) [compound A, 5-[2-(4-hydroxy-4-phenylpiperid-1-yl)ethyl]-5-(3,4-dichlorophenyl)-1-benzylpiperid-2-one hydrochloride]",0.1 nM,1 nM,not selective,Ki (rat NK3 receptor [3]): 200 nM; Ki [4]: 100 nM
CSCC[C@H](NC(=O)[C@H](CC(C)C)NC(=O)CNC(=O)[C@H](Cc1ccccc1)N(C)C(=O)[C@H](Cc1ccccc1)NC(=O)[C@H](CC(=O)O)NC(=O)CCC(=O)O)C(N)=O [senktide] (HELM PEPTIDE1{[O=C(O)CCC(=O)[*:2]].D.F.[meF].G.L.M.[am]}$$$$V2.0),,,,hypertension induced by senktide (NK3 receptor [5]): induces a hypertension; contralateral rotations induced by senktide (NK3 receptor [6]): strong contralateral rotations
"[Trp^7, Ala^8 ]NKA: A peptide antagonist, weakly specific for rat NK3 receptor (HKTDSFWALM; ends and bridges not checked; UniProt P20366 98-107, looked up, variant V7W G8A)",,,,specificity for rat NK3 receptor (rat NK3 receptor [7]): weakly specific
